Experimental data as given in PubChem BioAssay AID248 (DTP/NCI, 2004).
Values joined by “and” are separate entries in the source; they are usually repeats but may differ in a detail not shown here. Identical values can stand only once. Inconclusive results and toxic doses are left out. No stated cut-off is given here; in the data, active means T/C of 150% or more; inactive means T/C below 125%.

Test system: L1210 leukemia ip in BDF1 mice, survival T/C
Assay: NCI In Vivo Anticancer Drug Screen. Data for tumor model L1210 Leukemia (intraperitoneal) in B6D2F1 (BDF1) mice
Conditions: higher = longer survival
In short: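 Tumor cells were implanted, animals were treated, and survival was followed. The result divides the treated measurement by the vehicle-control measurement.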

[1] = endpoint: mean survival time, dose: 100.0 mg/kg/injection, schedule: Q01DX009 (ip), vehicle: Klucel (hydroxypropylcellulose) (HPC)
[2] = endpoint: mean survival time, dose: 200.0 mg/kg/injection, schedule: Q01DX009 (ip), vehicle: Klucel (hydroxypropylcellulose) (HPC)
[3] = endpoint: mean survival time, dose: 400.0 mg/kg/injection, schedule: Q01DX009 (ip), vehicle: Klucel (hydroxypropylcellulose) (HPC)

Measured: T/C

CC(=O)c1cccc(NC2C(N)C(NC(=O)N(C)C)(C(C)O)C(C)(O)C2(O)COC(=O)c2c(C)cccc2O)c1 (stereo not given)
inactive: endpoint: mean survival time, dose: 0.25 mg/kg/injection, schedule: Q01DX Z (ip), vehicle: saline 98 % of control | endpoint: mean survival time, dose: 0.5 mg/kg/injection, schedule: Q01DX Z (ip), vehicle: saline 98 % of control | endpoint: mean survival time, dose: 0.7 mg/kg/injection, schedule: Q01DX015 (ip), vehicle: carboxymethylcellulose (CMC) 111 % of control | endpoint: mean survival time, dose: 1.0 mg/kg/injection, schedule: Q01DX Z (ip), vehicle: saline 113 % of control | endpoint: mean survival time, dose: 1.5 mg/kg/injection, schedule: Q01DX015 (ip), vehicle: carboxymethylcellulose (CMC) 122 % of control | endpoint: mean survival time, dose: 2.0 mg/kg/injection, schedule: Q01DX Z (ip), vehicle: saline 117 % of control | endpoint: mean survival time, dose: 3.0 mg/kg/injection, schedule: Q01DX001 (ip), vehicle: carboxymethylcellulose (CMC) 104 % of control | endpoint: mean survival time, dose: 3.0 mg/kg/injection, schedule: Q01DX015 (ip), vehicle: carboxymethylcellulose (CMC) 90 % of control | endpoint: mean survival time, dose: 6.0 mg/kg/injection, schedule: Q01DX001 (ip), vehicle: carboxymethylcellulose (CMC) 107 % of control | endpoint: mean survival time, dose: 12.0 mg/kg/injection, schedule: Q01DX001 (ip), vehicle: carboxymethylcellulose (CMC) 107 % of control | endpoint: mean survival time, dose: 25.0 mg/kg/injection, schedule: Q01DX001 (ip), vehicle: carboxymethylcellulose (CMC) 112 % of control | endpoint: mean survival time, dose: 50.0 mg/kg/injection, schedule: Q01DX001 (ip), vehicle: carboxymethylcellulose (CMC) 112 % of control | endpoint: mean survival time, dose: 100.0 mg/kg/injection, schedule: Q01DX001 (ip), vehicle: carboxymethylcellulose (CMC) 114 % of control | endpoint: median survival time, dose: 2.0 mg/kg/injection, schedule: Q04DX003 (ip), vehicle: acid diluted with saline 103 % of control | endpoint: median survival time, dose: 4.0 mg/kg/injection, schedule: Q04DX003 (ip), vehicle: acid diluted with saline 103 % of control | endpoint: median survival time, dose: 8.0 mg/kg/injection, schedule: Q04DX003 (ip), vehicle: acid diluted with saline 103 % of control | endpoint: median survival time, dose: 16.0 mg/kg/injection, schedule: Q04DX003 (ip), vehicle: acid diluted with saline 112 % of control

CCC(C)(C)c1cccc2ccccc12
inactive: [1] 96 % of control | endpoint: mean survival time, dose: 100.0 mg/kg/injection, schedule: Q04DX003 (ip), vehicle: Klucel (hydroxypropylcellulose) (HPC) 102 % of control | [2] 100 % of control | endpoint: mean survival time, dose: 200.0 mg/kg/injection, schedule: Q04DX003 (ip), vehicle: Klucel (hydroxypropylcellulose) (HPC) 106 % of control | [3] 86 % of control | endpoint: mean survival time, dose: 400.0 mg/kg/injection, schedule: Q04DX003 (ip), vehicle: Klucel (hydroxypropylcellulose) (HPC) 101 % of control

COC(=O)C(Br)C(=O)OC
inactive: endpoint: mean survival time, dose: 12.5 mg/kg/injection, schedule: Q04DX002 (ip), vehicle: saline with Tween-80 97 % of control | endpoint: mean survival time, dose: 25.0 mg/kg/injection, schedule: Q04DX002 (ip), vehicle: saline with Tween-80 97 % of control

C#CCNc1ncnc2c1ncn2C1OC(CO)C(O)C1O (stereo not given)
inactive: endpoint: mean survival time, dose: 50.0 mg/kg/injection, schedule: Q01DX005 (ip), vehicle: saline 105 % of control | endpoint: mean survival time, dose: 100.0 mg/kg/injection, schedule: Q01DX005 (ip), vehicle: saline 101 % of control | endpoint: mean survival time, dose: 200.0 mg/kg/injection, schedule: Q01DX005 (ip), vehicle: saline 94 % of control

CC(C)(c1ccc(OCC2CO2)cc1)c1ccc(OCC2CO2)cc1 (stereo not given)
inactive: endpoint: mean survival time, dose: 100.0 mg/kg/injection, schedule: Q01DX001 (ip), vehicle: saline 101 % of control | endpoint: mean survival time, dose: 200.0 mg/kg/injection, schedule: Q01DX001 (ip), vehicle: saline 109 % of control | endpoint: mean survival time, dose: 400.0 mg/kg/injection, schedule: Q01DX001 (ip), vehicle: saline 96 % of control

COc1ccc(NCc2cnc3nc(N)nc(N)c3n2)cc1
inactive: endpoint: mean survival time, dose: 20.0 mg/kg/injection, schedule: Q01DX009 (ip), vehicle: saline with Tween-80 110 % of control | endpoint: mean survival time, dose: 40.0 mg/kg/injection, schedule: Q01DX009 (ip), vehicle: saline with Tween-80 108 % of control | endpoint: mean survival time, dose: 80.0 mg/kg/injection, schedule: Q01DX009 (ip), vehicle: saline with Tween-80 106 % of control

NCCc1cnc(N=Nc2ccc(C(=O)O)cc2)[nH]1
inactive: endpoint: mean survival time, dose: 50.0 mg/kg/injection, schedule: Q01DX009 (ip), vehicle: Klucel (hydroxypropylcellulose) (HPC) 89 % of control | [1] 89 % of control | [2] 87 % of control

CC[CH2][Pb]([CH2]CC)([CH2]CC)[O]C(=O)C(Cl)(Cl)Cl
inactive: endpoint: mean survival time, dose: 3.12 mg/kg/injection, schedule: Q01DX009 (ip), vehicle: Klucel (hydroxypropylcellulose) (HPC) 108 % of control | endpoint: mean survival time, dose: 3.12 mg/kg/injection, schedule: Q04DX002 (ip), vehicle: Klucel (hydroxypropylcellulose) (HPC) 105 % of control | endpoint: mean survival time, dose: 6.25 mg/kg/injection, schedule: Q01DX009 (ip), vehicle: Klucel (hydroxypropylcellulose) (HPC) 93 % of control | endpoint: mean survival time, dose: 6.25 mg/kg/injection, schedule: Q04DX002 (ip), vehicle: Klucel (hydroxypropylcellulose) (HPC) 93 % of control | endpoint: mean survival time, dose: 12.5 mg/kg/injection, schedule: Q01DX009 (ip), vehicle: Klucel (hydroxypropylcellulose) (HPC) 101 % of control | endpoint: mean survival time, dose: 12.5 mg/kg/injection, schedule: Q04DX002 (ip), vehicle: Klucel (hydroxypropylcellulose) (HPC) 97 % of control and 99 % of control

COc1ccc(N=NN(C(C)=O)c2ccccc2)cc1
inactive: [1] 111 % of control | endpoint: mean survival time, dose: 100.0 mg/kg/injection, schedule: Q04DX003 (ip), vehicle: saline 102 % of control | [2] 110 % of control | endpoint: mean survival time, dose: 200.0 mg/kg/injection, schedule: Q04DX003 (ip), vehicle: saline 111 % of control | [3] 96 % of control | endpoint: mean survival time, dose: 400.0 mg/kg/injection, schedule: Q04DX003 (ip), vehicle: saline 123 % of control

[O-][n+]1ccccc1F
inactive: endpoint: mean survival time, dose: 5.0 mg/kg/injection, schedule: Q01DX001 (ip), vehicle: saline 100 % of control | endpoint: mean survival time, dose: 10.0 mg/kg/injection, schedule: Q01DX001 (ip), vehicle: saline 102 % of control | endpoint: mean survival time, dose: 20.0 mg/kg/injection, schedule: Q01DX001 (ip), vehicle: saline 103 % of control | endpoint: mean survival time, dose: 40.0 mg/kg/injection, schedule: Q01DX001 (ip), vehicle: saline 96 % of control | endpoint: mean survival time, dose: 80.0 mg/kg/injection, schedule: Q01DX001 (ip), vehicle: saline 98 % of control

O=C(Nc1ccc(Cl)cc1C(F)(F)F)Sc1ccc(Cl)cc1
inactive: endpoint: mean survival time, dose: 100.0 mg/kg/injection, schedule: Q01DX001 (ip), vehicle: gum acacia 103 % of control and 104 % of control | endpoint: mean survival time, dose: 100.0 mg/kg/injection, schedule: Q01DX009 (ip), vehicle: gum acacia 92 % of control | endpoint: mean survival time, dose: 100.0 mg/kg/injection, schedule: Q04DX002 (ip), vehicle: gum acacia 99 % of control and 88 % of control | endpoint: mean survival time, dose: 100.0 mg/kg/injection, schedule: Q04DX003 (ip), vehicle: gum acacia 92 % of control and 87 % of control | endpoint: mean survival time, dose: 200.0 mg/kg/injection, schedule: Q01DX001 (ip), vehicle: gum acacia 98 % of control and 103 % of control | endpoint: mean survival time, dose: 200.0 mg/kg/injection, schedule: Q01DX009 (ip), vehicle: gum acacia 90 % of control | endpoint: mean survival time, dose: 200.0 mg/kg/injection, schedule: Q04DX002 (ip), vehicle: gum acacia 101 % of control and 102 % of control | endpoint: mean survival time, dose: 200.0 mg/kg/injection, schedule: Q04DX003 (ip), vehicle: gum acacia 92 % of control and 109 % of control | endpoint: mean survival time, dose: 400.0 mg/kg/injection, schedule: Q01DX001 (ip), vehicle: gum acacia 100 % of control and 103 % of control | endpoint: mean survival time, dose: 400.0 mg/kg/injection, schedule: Q04DX002 (ip), vehicle: gum acacia 97 % of control and 89 % of control | endpoint: mean survival time, dose: 400.0 mg/kg/injection, schedule: Q04DX003 (ip), vehicle: gum acacia 97 % of control and 90 % of control

c1ccc2c(c1)[nH]c1ccncc12
inactive: endpoint: mean survival time, dose: 25.0 mg/kg/injection, schedule: Q04DX003 (ip), vehicle: saline with Tween-80 101 % of control | endpoint: mean survival time, dose: 50.0 mg/kg/injection, schedule: Q04DX003 (ip), vehicle: saline with Tween-80 95 % of control | endpoint: mean survival time, dose: 100.0 mg/kg/injection, schedule: Q04DX003 (ip), vehicle: saline with Tween-80 97 % of control

OC(CCCNc1ccccc1)CCCNc1ccccc1
inactive: endpoint: mean survival time, dose: 75.0 mg/kg/injection, schedule: Q01DX001 (ip), vehicle: saline 96 % of control | endpoint: mean survival time, dose: 150.0 mg/kg/injection, schedule: Q01DX001 (ip), vehicle: saline 91 % of control
